Assay results reported in patent US20120231083A1, “SUSTAINED RELEASE CANNABINOID MEDICAMENTS” (The Board of Trustees of the University of Illinois, priority 2010, published 2012).
Like-named read-outs stand apart in the source and are kept apart here.

Key:
[1] = described in US 2007/0072939; not shown for sleep related disorders; cited from earlier work
[2] = in vivo; cited from earlier work
[3] = cited from earlier work
subjects = assay: Oral dosing comparator 1: single immediate release dosage, AHI; assay type: in vivo, human
Procedure: (§1) For the purpose of comparing oral medicaments (i.e., providing a comparator), a medicament is orally administered to one or more subjects. The various factors affecting ADME (absorption, distribution, metabolism, and excretion) of the drug are standardized. For example, the patient is optionally a fasted patient and optionally falls asleep within one of 15 minutes or 30 minutes of laying down for bed. The same subjects are used for comparing different medicaments (after providing an appropriate wash-out period).
(§2) Plasma levels of the drug (e.g. THC) and metabolites thereof (e.g. 11-OH-THC) are taken at regular intervals (e.g. every 30 minutes) during a treatment window (e.g. from T0 to T8hr).
(§3) Therapeutic responses are recorded throughout the entire treatment window.
(§4) Therapeutic responses are correlated with pharmacokinetic parameters of the drug or metabolites thereof. The pharmacokinetic parameters include one or more of: plasma concentration and AUC (at various times).
An oral dosing “comparator” is provided by orally administering an immediate release dosage of cannabinoid (e.g. MARINOL® soft gel).

sleep apnea patient = assay: Oral dosing comparator 2: two immediate release dosages in succession (T0 and T3), AHI; assay type: in vivo, human; settings: immediate release dosages at T0 and T3
Procedure: as §1, §2, §3, §4
A second oral dosing comparator is provided by the method of Example 6, where a first immediate release dosage of cannabinoid (e.g. 2.5 mg MARINOL® soft gel) to a sleep apnea patient 30 minutes before bed at To. The patient is allowed to fall asleep and at a predetermined time, the subject is briefly woken to receive a second immediate release dosage of MARINOL® soft gel (e.g. at T3) and allowed to return to sleep.

rat model of sleep apnea = settings: 10 mg/kg intraperitoneal, US 2004/0127572; cited from earlier work

Row | SMILES | activity compared to the trans-(−)-enantiomer [1] | Side Effects, Digestive [2] | Side Effects, Musculoskeletal [2] | Side Effects, Skin and Appendages [2] | Side Effects, Special senses [2] | Side effects with co-administration ([3]; with antipyrine, barbiturates) | Side effects with co-administration ([3]; with atropine, scopolamine, antihistamines, other anticholinergic agents) | Side effects with co-administration ([3]; with barbiturates, benzodiazepines, ethanol, lithium, opioids, buspirone, antihistamines, muscle relaxants, other CNS depressants) | Side effects with co-administration ([3]; with disulfiram, person who smoked marijuana) | Side effects with co-administration ([3]; with fluoxetine 20 mg/day x 4 wks, person, smoking marijuana) | Side effects with co-administration ([3]; with theophylline, smoking of marijuana) | therapeutic window (subjects; lower doses (e.g. 5 mg-20 mg)) | AHI (subjects; subjects receiving 1 to 75 mg) | therapeutic window (sleep apnea patient; lower doses (e.g. 5 mg-20 mg)) | AHI (sleep apnea patient; subjects receiving 1 to 75 mg) | breathing cessation during non-REM (NREM) sleep (rat model of sleep apnea)
1 | CCCCCc1cc(O)c2c(c1)OC(C)(C)C1CCC(C)=CC21 (single isomer, unassigned) [trans-(+) enantiomer, trans-(+)-THC] | about 1% | – | – | – | – | – | – | – | – | – | – | – | – | – | – | –
2 | CCCCCc1cc(O)c2c(c1)OC(C)(C)[C@@H]1CCC(C)=C[C@@H]21 [Dronabinol, Delta-9-tetrahydrocannabinol] | – | Diarrhea*, fecal incontinence. | Myalgias. | Flushing*. | Vision difficulties. | Decreased clearance of these agents, | super-additive tachycardia, drowsiness | Additive drowsiness and CNS depression | reversible hypomanic reaction was reported | became hypomanic after smoking marijuana; | Increased theophylline metabolism reported | does not consistently extend through the seventh or eighth hour of sleep | improved | generally extends through the seventh or eighth hour of sleep | improved | reduced breathing cessation
